Laboratory results reported in patent publication US7713988B2, “4,5-diphenyl-pyrimidinylamino substituted carboxylic acids, method for the production and use thereof as medicaments” (Sanofi-Aventis, priority 2006, dated 2010).

Target: T1, GPCR GPR40 (Homo sapiens, UniProt O14842)
T1 construct: expressed in transfected cells; host or cells: HEK293
Test: In vitro FLIPR assay with recombinant cells which express the GPCR GPR40 (intracellular Ca2+ change)
Assay type: cell-based
Details: 100 μM test substance; recombinant HEK293 cells expressing GPR40; relative to control (0%: no test substance; 100%: 10 μM reference agonist linoleic acid)
Description: In vitro FLIPR assay with recombinant cells which express the GPCR GPR40 Function-testing assays were carried out by means of the FLIPR technique (“Fluorescence Imaging Plate Reader”, Molecular Devices Corp.). For this purpose, agonist-induced changes in the intracellular concentration of Ca^2+ in recombinant HEK293 cells which expressed the GPCR GPR40 were determined.
For the investigations, cells were seeded in 96-well microtiter plates (60 000 cells/well) and allowed to grow overnight. The medium was removed and the cells were incubated in buffer which contained the fluorescent dye fluo-4. After this loading with dye, the cells were washed, test substance was added, and changes in the intracellular Ca^2+ concentration were measured in the FLIPR instrument. Results have been presented as percentage change relative to the control (0%: no test substance added; 100%:10 μM reference agonist linoleic acid added).

T1 sequence (O14842 whole entry): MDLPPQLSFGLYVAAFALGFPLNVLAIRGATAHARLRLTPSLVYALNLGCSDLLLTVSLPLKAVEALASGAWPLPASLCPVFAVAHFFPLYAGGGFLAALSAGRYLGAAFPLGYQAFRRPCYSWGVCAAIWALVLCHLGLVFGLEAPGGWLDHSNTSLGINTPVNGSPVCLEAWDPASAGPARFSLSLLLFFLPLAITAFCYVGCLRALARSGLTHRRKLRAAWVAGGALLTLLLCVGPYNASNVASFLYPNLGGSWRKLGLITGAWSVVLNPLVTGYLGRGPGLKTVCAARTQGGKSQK

| SMILES | % activation @ 100 μM |
| --- | --- |
| O=C(O)C1CCC(CNc2ncc(-c3ccccc3)c(-c3ccccc3)n2)CC1 (stereo not shown) [Example 1, 4-[(4,5-Diphenylpyrimidin-2-ylamino)methyl]cyclohexanecarboxylic acid] | 79% |
| O=C(O)C(F)(F)F.O=C(O)CCCCCCCNc1ncc(-c2ccccc2)c(-c2ccccc2)n1 [Example 3, 8-(4,5-Diphenylpyrimidin-2-ylamino)octanoic Acid Trifluoroacetate] | 104% |
| O=C(O)C(F)(F)F.O=C(O)CCCCCCNc1ncc(-c2ccccc2)c(-c2ccccc2)n1 [Example 4, 7-(4,5-Diphenylpyrimidin-2-ylamino)heptanoic Acid Trifluoroacetate] | 94% |
| O=C(O)C(F)(F)F.O=C(O)CCCCCNc1ncc(-c2ccccc2)c(-c2ccccc2)n1 [Example 5, 6-(4,5-Diphenylpyrimidin-2-ylamino)hexanoic acid trifluoroacetate] | 73% |
